According to patent US5527785A, “Selectin receptor modulating compositions” (The Regents of the University of California, priority 1993, dated 1996):
Values belong to the molecule of their own block, whether it stands above or below them.

How the values were obtained:
L-selectin-Ig [1] = assay: Competition ELISA, L-selectin-Ig binding to BSA-sLe^x; details: for inhibition of L-selectin-Ig binding to BSA-sLe^x (in words): competitive ELISA, FIG. 8
E-selectin-Ig [2] = assay: Competition ELISA, E-selectin-Ig binding to BSA-sLe^x
Protocol: (§1) Briefly, microtiter plates were coated with neoglycoprotein BSA-sLe^x, BSA-sLe^a, (Chembiomed, Alberta, CAN) or unconjugated BSA (0.11 μg/well) in 50 mM carbonate bicarbonate buffer, pH 9.5. Plates were blocked with 20 mg/ml BSA in ELISA buffer (150 mM NaCl, 20 mM HEPES, 2 mM CaCl2, 0.25 mM thimerosal, pH 7.4). E- and P-selectin-Ig fusion proteins (20 nM) were coincubated in the coated, blocked microtiter wells with serially diluted heparin fragments (typically 0-1000 μg/ml) in ELISA buffer containing 10 mg/ml BSA for three hours at room temperature. […] Color development was stopped in the linear range (typically after 4-16 minutes) using 5 μl 4 NH2 SO4, and endpoint optical density measured at 490 nm.

L-selectin-Ig [3] = assay: LS180 colon cancer cell adhesion to immobilized L-selectin-Ig; format: cell-based; details: FIG. 5
Protocol: (§2) The colon carcinoma cell line, LS180, is a useful model for studying selectin-dependent adhesion since it binds to all three selectins. E-, P-, and L-selectin-Ig were immobilized on microwell (Terasaki) plates coated with protein A. Five μl of buffer containing crude heparin, di-, tetra- or hexasaccharide heparin fragments or antibody (as described above) was incubated for 20 minutes at 4° C. Five μl containing 5000 LS180 cells was added for 30 minutes at 4° C. to allow adhesion to occur. The wells were then washed, fixed with glutaraldehyde, and the bound cells counted by microscopic observation.

E-selectin-Ig [4] = assay: LS180 colon cancer cell adhesion to immobilized E-selectin-Ig; format: cell-based; details: FIG. 5
Protocol: as §2

P-selectin-Ig [5] = assay: Competition ELISA, P-selectin-Ig binding to BSA-sLe^x; details: Table 1, P-selectin; approximate IC50 values
Protocol: as §1

P-selectin-Ig [6] = assay: LS180 colon cancer cell adhesion to immobilized P-selectin-Ig; format: cell-based; details: FIG. 5
Protocol: as §2

P-selectin [7] = assay: HL60 cell adhesion to COS cells transfected with P-selectin cDNA; format: cell-based; details: at the concentrations tested in these adhesion assays (HL60 and PMN to selectin-transfected COS)
Protocol: COS cells were grown on coverslips in Dulbecco's minimal essential media with 10% fetal calf serum. After 72 hours, polysaccharides were added to the COS cell cultures to achieve final concentrations of 0, 0.1, 1.0, 10.0, 100.0 or 1000.0 μg/ml. Polysaccharides included crude heparin, dermatan sulfate, heparin tetrasaccharide, and heparin hexasaccharide. HL60 cells, a leukocytic cell line, were added to the COS cell cultures 30 minutes after the polysaccharides were added and incubated for 30 minutes. The coverslips were then washed with media to remove unbound cells and COS cells with three or more HL60 cells bound (rosettes) were counted using phase contrast microscopy.
Briefly, subconfluent monolayers were incubated at 37° C. for 2.5 hours with Dulbecco's modified Eagle's medium (DMEM) with 10% NuSerum (Collaborative Research, Bedford, Mass.) containing 10 μg cDNA, 400 μg/mL DEAE-dextran (Sigma), and 100 μM chloroquine diphosphate (Sigma). […] HL60 cell adhesion was quantitated as number of HL60 rosettes (2 or more cells bound) per 100 transfected COS cells. Number of transfected COS was determined using mAbs specific for E-, P-, and L-selectin (see below) followed by secondary reaction with a fluorescein-conjugated anti-immunoglobulin antibody (Cappel, Durham, N.C.). […]

P-selectin [8] = details: Larsen, et al.; cited from earlier work
L-selectin-Ig [9] = details: 11 mM; cited from earlier work
L-selectin-Ig [10] = details: 5 mM; cited from earlier work
L-selectin-Ig [11] = details: Table 1, L-selectin; footnote: Foxall, et al., supra; cited from earlier work

IC50, inhibition of L-selectin-Ig (L-selectin-Ig [1]; competition ELISA, FIG. 12): 61 µg/mL | IC50 (L-selectin-Ig [1]; competition ELISA, FIG. 12, read-out: IC50, inhibition of L-selectin-Ig): 46 µM | activity relative to the size fractionated tetrasaccharide mixture (L-selectin-Ig [1]; competition ELISA, L-selectin-Ig): 2-4 fold | activity against L-selectin relative to sLe^x in non-cellular assays (L-selectin-Ig [1]; non-cellular assays, F4 vs sLe^x): over 100 fold | activity against E-selectin-Ig (in words) (E-selectin-Ig [2]; concentrations up to 1 mM): no activity
Structure (SMILES): O=C(O)C1=C[C@H](O)[C@@H](OS(=O)(=O)O)[C@H](O[C@H]2[C@H](O)[C@@H](NS(=O)(=O)O)[C@@H](O[C@H]3[C@H](O)[C@@H](OS(=O)(=O)O)[C@H](O[C@H]4[C@H](O)[C@@H](NS(=O)(=O)O)C(O)O[C@@H]4COS(=O)(=O)O)O[C@H]3C(=O)O)O[C@@H]2COS(=O)(=O)O)O1 (some centres unmarked) [F4, ΔUA2Sα1-4DGIcNS6Sα1-4LIdoA2Sα1-4DGIcNS6S]

IC50, inhibition of L-selectin-Ig binding to BSA-sLe^x (L-selectin-Ig [1]; Table 1, L-selectin, approximate IC50 values): > 1000 µg/mL | inhibition of L-selectin-Ig binding to BSA-sLe^x (in words) (L-selectin-Ig [1]; listed as tris-sulfated heparin disaccharide): some inhibition | inhibition of L-selectin-Ig binding to BSA-sLe^x (in words) (L-selectin-Ig [1]; listed as trisulfated disaccharide fragment of heparin): somewhat effective | IC50, inhibition of P-selectin-Ig binding to BSA-sLe^x (P-selectin-Ig [5]): > 1000 µg/mL
Structure (SMILES): O=C(O)C1=C[C@H](O)[C@@H](OS(=O)(=O)O)[C@H](O[C@H]2[C@H](O)[C@@H](NS(=O)(=O)O)C(O)O[C@@H]2COS(=O)(=O)O)O1 (some centres unmarked) [Di, UA2Sα1-4GIcNS6S]
adhesion of LS180 cells to plates coated with L-selectin-Ig (in words) (L-selectin-Ig [3]): no effect | adhesion of LS180 cells to plates coated with E-selectin-Ig (in words) (E-selectin-Ig [4]): no effect | adhesion of LS180 cells to plates coated with P-selectin-Ig (in words) (P-selectin-Ig [6]): no effect | blocking activity in the COS cell adhesion assays (in words) (P-selectin [7]): little blocking activity

Structure (SMILES): CC(=O)N[C@H]1[C@H](O[C@H]2[C@@H](O)[C@@H](CO)O[C@@H](O[C@H]3[C@H](O)[C@@H](O)C(O)O[C@@H]3CO)[C@@H]2O)O[C@H](CO)[C@@H](O[C@@H]2O[C@H](CO)[C@H](O)[C@H](O)[C@H]2O)[C@@H]1O[C@@H]1O[C@@H](C)[C@@H](O)[C@@H](O)[C@@H]1O (some centres unmarked) [LNF-III]
P-selectin-dependent rosetting of activated platelets to leukocytes (in words) (P-selectin [8]): blocked

activity against L-selectin-Ig binding (in words) (L-selectin-Ig [1]; concentrations of up to 1 mM): no measurable activity | IC50 (E-selectin-Ig [2]; read-out: IC50, E-selectin-Ig binding to immobilized BSA-sLe^x): 510 ± 60 µM | IC50, inhibition of P-selectin-Ig binding to BSA-sLe^x (P-selectin-Ig [5]): > 1000 µg/mL
Structure (SMILES): CC(=O)NC1C(O)CC(OC2C(O)C(CO)OC(OC3C(CO)OC(O)C(NC(C)=O)C3OC3OC(C)C(O)C(O)C3O)C2O)(C(=O)O)OC1C(O)C(O)CO (centres unmarked) [sLex, Neu5Acα2-3Galβ1-4(Fucα1-3)GIcNAc, reference compound]
block of L-selectin-Ig binding to glycam-1 (L-selectin-Ig [9]): approximately 60% | block of L-selectin-Ig binding to immobilized sLe^x glycolipid (L-selectin-Ig [10]): approximately 50% | IC50, inhibition of L-selectin-Ig binding (L-selectin-Ig [11]): 4100 µg/mL
